From article PMC8944662 (Proceedings of the National Academy of Sciences of the …, 2022)

Biological target: NfnL (isolated large subunit of NADH-dependent ferredoxin-NADP+ oxidoreductase I) (Pyrococcus furiosus, UniProt Q8U195)
Assay: intrinsic Trp/Tyr fluorescence quenching titration, Morrison fit
Format: binding

Chain of NfnL (isolated large subunit of NADH-dependent ferredoxin-NADP+ oxidoreductase I) (Q8U195 whole entry): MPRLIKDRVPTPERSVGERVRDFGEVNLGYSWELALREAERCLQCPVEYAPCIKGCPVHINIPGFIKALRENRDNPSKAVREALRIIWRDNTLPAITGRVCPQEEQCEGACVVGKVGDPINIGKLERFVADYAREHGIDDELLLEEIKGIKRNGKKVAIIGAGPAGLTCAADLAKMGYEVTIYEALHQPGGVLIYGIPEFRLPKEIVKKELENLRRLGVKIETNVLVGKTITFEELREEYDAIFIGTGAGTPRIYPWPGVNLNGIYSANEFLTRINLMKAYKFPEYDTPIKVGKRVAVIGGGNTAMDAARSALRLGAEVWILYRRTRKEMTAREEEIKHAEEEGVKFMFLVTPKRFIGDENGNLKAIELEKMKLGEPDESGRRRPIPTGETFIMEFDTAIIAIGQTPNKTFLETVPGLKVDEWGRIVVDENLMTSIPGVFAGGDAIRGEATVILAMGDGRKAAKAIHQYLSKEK

Kd [µM] | SMILES
3 ± 0.4 | NC(=O)C1=CN([C@@H]2O[C@H](COP(=O)(O)OP(=O)(O)OC[C@H]3O[C@@H](n4cnc5c(N)ncnc54)[C@H](OP(=O)(O)O)[C@@H]3O)[C@@H](O)[C@H]2O)C=CC1 [NADPH]
3 ± 0.4 | NC(=O)c1ccc[n+]([C@@H]2O[C@H](COP(=O)(O)OP(=O)(O)OC[C@H]3O[C@@H](n4cnc5c(N)ncnc54)[C@H](OP(=O)(O)O)[C@@H]3O)[C@@H](O)[C@H]2O)c1 [NADP^+]
